Here are results for 16 compounds from patent publication US20150183737A1, “COMPOSITIONS AND METHODS FOR SUBSTRATE-SELECTIVE INHIBITION OF ENDOCANNABINOID OXYGENATION” (Vanderbilt University, priority 2012, published 2015).

Entries after “also recorded” stand apart in the source; their conditions may differ. Where two headings read alike, the source gives them in different places.

One assay has as its target T1, COX-2 (Mus musculus, UniProt Q05769).
T1 sequence (Q05769 18-604): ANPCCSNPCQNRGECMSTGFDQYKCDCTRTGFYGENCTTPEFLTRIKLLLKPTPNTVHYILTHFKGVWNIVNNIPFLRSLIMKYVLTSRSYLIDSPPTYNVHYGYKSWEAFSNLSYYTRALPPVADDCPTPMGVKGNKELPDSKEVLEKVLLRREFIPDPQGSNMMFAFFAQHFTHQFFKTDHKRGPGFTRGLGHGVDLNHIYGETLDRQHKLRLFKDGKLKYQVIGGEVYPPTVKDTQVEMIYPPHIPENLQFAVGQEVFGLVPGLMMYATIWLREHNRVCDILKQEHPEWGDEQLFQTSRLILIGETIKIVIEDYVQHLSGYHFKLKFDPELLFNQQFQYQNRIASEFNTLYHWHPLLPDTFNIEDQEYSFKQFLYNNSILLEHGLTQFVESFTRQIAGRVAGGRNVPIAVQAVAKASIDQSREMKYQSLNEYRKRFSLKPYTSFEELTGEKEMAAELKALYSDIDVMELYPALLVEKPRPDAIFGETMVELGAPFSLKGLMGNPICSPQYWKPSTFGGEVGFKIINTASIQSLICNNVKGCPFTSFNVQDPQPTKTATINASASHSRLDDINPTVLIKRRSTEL
Put plainly: Inhibition of COX-2 oxygenation by acetaminophen and its metabolites. It counts as biochemical. The note with it: for Inhibition of AA oxygenation: up to 1 mM.

In a further assay the target is T2, wild type mCOX-2 (Mus musculus, UniProt Q05769).
T2 sequence (Q05769 18-604): T1 sequence (Q05769 18-604)
The experiment in a line: biochemical.

The target of a further assay is T3, purified murine COX-2 (Mus musculus, UniProt Q05769).
T3 sequence (Q05769 18-604): T1 sequence (Q05769 18-604)
Put plainly: Inhibition of mCOX-2-dependent oxygenation of 2-AG and AA by lumiracoxib and derivatives in vitro. It counts as biochemical. Also on record: made in house; host or cells: insect cells; dose or concentration left out as unconfirmed.

Another assay concerns the target T4, mCOX-2 (Mus musculus, UniProt Q05769).
T4 construct: made in house; host or cells: insect cells
T4 sequence (Q05769 18-604): T1 sequence (Q05769 18-604)
The experiment in a line: Inhibition of COX-2-mediated oxygenation of arachidonic acid and 2-AG, purified enzyme, 15 min preincubation. It counts as biochemical, murine. The protocol: Various concentrations of inhibitor (or DMSO) were incubated with mCOX-2 (200 nM) for 5-15 minutes in 100 mM Tris-HCl with 0.5 mM phenol, pH 8.0. For mutant mCOX-2 experiments, the enzyme concentration was adjusted such that the turnover was approximately equal to wild type enzyme. The preincubation time was determined on the basis of previous reports regarding the time required to achieve maximal inhibition, and preincubation was performed at 25° C. except for the final 3 minutes, which took place at 37° C. […] After the preincubation of enzyme and inhibitor, arachidonic acid or 2-AG was added for 30 seconds at 37° C. The reaction was quenched with ice-cold ethyl acetate containing 0.5% (v/v) acetic acid and 1 μM PGE2-d4 and PGE2-G-d5. The solution was then vigorously mixed and cooled on ice. The organic layer was separated and evaporated to near-dryness under nitrogen. […] Peak areas for analytes were normalized to the appropriate internal standard to determine the amount of product formation, and the amount of inhibition was determined by normalization to a DMSO control.

In assay [1] the test system is brain eCB, AA and PG levels. Put plainly: Brain eCB, NAE, MAG, AA and PG levels after i.p. injection. Type of assay: in vivo, mice. The settings on record: for Brain AA levels / Brain PG levels: 10 mg/kg i.p. (Compound A: any dose tested); for Brain AEA levels: 10 mg/kg i.p. The method, then:
5-7 week old male ICR mice were used for all experiments with the exception of knockout animals (Harlan, Indianapolis, Ind., United States of America). Mice were housed 5 per […]. All behavioral tests were conducted during the light cycle between 0900 and 1700. KO and WT littermate controls for FAAH^(−/−) and COX-2^(−/−) mice were derived from heterozygote breeding pairs, bred and genotyped as described in Uddin et al., 2011. CB1^(−/−) mice were bred from homozygote breeding pairs and genotyped as described in Pan et al., 2008. Mice were group-housed on a 12:12 light-dark cycle (lights on at 06:00), with food and water available ad libitum. All animal studies were approved by the Vanderbilt Institutional Animal Care and Use Committee and conducted in accordance with the Guide for the Care and Use of Laboratory Animals of the United States National Institutes of Health.
(§1) Mice were sacrificed by cervical dislocation and decapitation. The brain, lungs, liver, stomach, small intestines, and kidneys were then rapidly removed and frozen on a metal block in dry ice. The tissue was then placed in a tube and stored at −80° C. until extraction, usually one day after harvesting. For PG and eCB analysis, lipid extraction from tissue was carried out as described in Patel et al., 2009.
(§2) Analytes were quantified using LC-MS/MS on a Quantum triple-quadrupole mass spectrometer in positive-ion mode using selected reaction monitoring. Detection of eicosanoids was performed as described in Kingsley & Marnett, 2007. For fatty acid analysis the mobile phases used were 80 μM AgOAc with 0.1% (v/v) acetic acid in H2O (solvent A) and 120 μM AgOAc with 0.1% (v/v) acetic acid in MeOH (solvent B). The analytes were eluted using a gradient from 20% A to 99% B over 5 minutes. The transitions used were m/z 300→282 for PEA, m/z 328→310 for SEA, m/z 434→416 for OEA, m/z 456→438 for AEA, m/z 464→446 for AEA-d8, m/z 331→257 for 2-PG, m/z 359→285 for 2-SG, m/z 463→389 for 2-OG, m/z 485→411 for 2-AG, m/z 493→419 for 2-AG-d8, m/z 519→409 for AA, and m/z 527→417 for AA-d8. Peak areas for the analytes were normalized to the appropriate internal standard and then normalized to tissue mass for in vivo samples.

The subject of the next assay is ICR mice. Put plainly: Novel open field test. Type of assay: in vivo. The note with it: 10 mg/kg. The method, then:
Animals were tested for open-field activity in a novel environment one hour after i.p. injection of compound as described in Sumislawski et al., 2011. Briefly, one-hour sessions were performed using automated experimental chambers (27.9 27.9 cm; MEDOFA-510; MED Associates, Ga., Vermont, United States of America) under constant illumination within a sound-attenuated room. Analysis of open field activity was performed using Activity Monitor v5.10 (MED Associates).

Assay [2] concerns peripheral tissue eCB, NAE, MAG and PG levels. The experiment in a line: Peripheral tissue NAE, MAG and PG levels after i.p. injection. It counts as in vivo, mice. The note with it: stomach, heart, kidney, lung, intestine. The method, then:
as §1
as §2, with “samples. […]” for “samples.”

[3] abbreviates: 2-AG IC50, 2-AG oxygenation by COX-2.
[4] abbreviates: AA IC50, AA oxygenation by COX-2.
[5] abbreviates: 15 min incubation, read-out: Maximum inhibition of AA oxygenation (converted).
[6] abbreviates: read-out: IC50, COX-2 oxygenation of 2-AG, 50 μM 2-AG, 15 min preincubation, LC-MS/MS.

Usually IC50 stands for the concentration that inhibits the measured activity by half. For the compound `Nc1ccc(O)cc1` [4-aminophenol], at COX-2, the IC50 turned out to be 71000 nM and the “Inhibition of AA oxygenation” value is listed as “No inhibition”.
With `CC(=O)Nc1ccc(O)cc1` [APAP, acetaminophen], on COX-2, the “Inhibition of AA oxygenation” value is “No inhibition”.
For the compound `COc1ccc2c(c1)c(CC(N)=O)c(C)n2C(=O)c1ccc(Cl)cc1` [B], the IC50 against wild type mCOX-2 (setting [3]) was found to be 590 nM; on wild type mCOX-2 (setting [4]), 610 nM.
For the compound `COc1ccc2c(c1)c(CC(=O)NCCO)c(C)n2C(=O)c1ccc(Cl)cc1` [C], the figures for the half-inhibitory concentration (IC50) at wild type mCOX-2 (setting [3]) and against wild type mCOX-2 (setting [4]) were 237 nM and 262 nM, respectively.
For the compound `Cc1cccc(F)c1Nc1ccccc1CC(=O)O` [Compound 115], the inhibition at purified murine COX-2 (setting [5]) is 0%; at purified murine COX-2 (inhibitor incubated with enzyme for 15 min before addition of substrate, read-out: AA IC50) it was less than 50%.
Consider `O=C(O)Cc1ccccc1Nc1c(Cl)cc(Br)cc1Cl` [Compound 116], for which, on purified murine COX-2 (setting [5]), the inhibition is 55%.
With `COc1ccc2c(c1)c(CC(=O)O)cn2C(=O)c1ccc(Cl)cc1` [DM-INDO], the IC50 at mCOX-2 (50 μM AA, 15 min preincubation, LC-MS/MS, read-out: IC50, COX-2 oxygenation of arachidonic acid) is more than 25000 nM; on mCOX-2 (setting [6]) it was 250 nM.
Regarding `COc1ccc2c(c1)c(CC(=O)N(C)C)c(C)n2C(=O)c1ccc(Cl)cc1` [D], the IC50 was 424 nM against wild type mCOX-2 (setting [3]) and 19000 nM against wild type mCOX-2 (setting [4]).
As to `CCN(CC)C(=O)Cc1c(C)n(C(=O)c2ccc(Cl)cc2)c2ccc(OC)cc12` [E], the values for the IC50 against wild type mCOX-2 (setting [3]) and on wild type mCOX-2 (setting [4]) were 583 nM and 23000 nM, respectively.
For `COc1ccc2c(c1)c(CC(=O)N1CCCCC1)c(C)n2C(=O)c1ccc(Cl)cc1` [F] the same measures were 653 nM and more than 25000 nM.
With `COc1ccc2c(c1)c(CC(=O)N(C)CCc1ccccc1)c(C)n2C(=O)c1ccc(Cl)cc1` [G], the IC50 against wild type mCOX-2 (setting [3]) was 715 nM; against wild type mCOX-2 (setting [4]) it was more than 25000 nM.
For the compound `Cc1ccc(Nc2c(F)cccc2Cl)c(CC(=O)O)c1` [Lumiracoxib], the “IC50, COX-2 oxygenation of arachidonic acid” value against mCOX-2 (50 μM AA, 15 min preincubation, LC-MS/MS) is listed as “No inhibition”. In addition, the IC50 on mCOX-2 (setting [6]) is 40 nM.
Take `CS(=O)(=O)Nc1ccc([N+](=O)[O-])cc1OC1CCCCC1` [NS-398, reference compound]: in assay [1] (2 hours), the “Brain AA levels” value was “significantly increased” and the “Brain PG levels” value was “profoundly decreased”. For the same compound, in assay [1] (2 hours, vs vehicle), the “Brain AEA levels” value is “significantly increased”. Moreover, the “Center distance travelled and center time in the open-field arena” value with ICR mice is recorded as “significantly increased”.
`CS(=O)(=O)c1ccc(C2=C(c3ccccc3)C(=O)OC2)cc1` [Rofecoxib]: the IC50 on mCOX-2 (read-out: IC50, COX-2 oxygenation of 2-AG) came to 85 nM; at mCOX-2 (read-out: IC50, COX-2 oxygenation of arachidonic acid), 520 nM.
Consider `COc1ccc(-n2nc(C(F)(F)F)cc2-c2ccc(Cl)cc2)cc1` [SC-560, reference compound], for which, in assay [1] (2 hours), the “Brain AA levels” value is listed as “significantly increased” and the “Brain PG levels” value is listed as “profoundly decreased”. For the same compound, the “Brain AEA levels” value in assay [1] (2 hours, vs vehicle) is reported as “significantly increased”. Also, the “Center distance travelled and center time in the open-field arena” value with ICR mice is on record as “did not have any significant behavioral effect; also recorded: no significant behavioral effects”.
`COc1ccc2c(c1)c(CC(=O)O)c(C)n2C(=O)c1ccc(Cl)cc1` [indomethacin, reference compound]: the “PG levels in peripheral tissues” value in assay [2] is “robustly decreased”. Also, in assay [1] (2 hours), the “Brain AA levels” value is given as “significantly increased” and the “Brain PG levels” value was “profoundly decreased”. Further, the “Brain 2-AG levels” value in assay [1] (10 mg/kg i.p. (highest dose), 2 hours, vs vehicle) was “significantly increased”. Besides, the “Brain AEA levels” value in assay [1] (2 hours, vs vehicle) is listed as “significantly increased”. Moreover, the “Brain AEA levels (Example 8)” value in assay [1] (2 hours after i.p administration, dose not stated) was “increased”. Moreover, in assay [1] (dose not stated), the “Brain or lung PG levels (Example 8)” value is “profoundly decreased”. For the same compound, the “Center distance travelled and center time in the open-field arena” value in the assay on ICR mice is “significantly increased”. Also, the “Center distance travelled and center time in the open-field arena” value in the assay with ICR mice (listed as Indomethacin) is “increased”.
